Laboratory results as given in ChEMBL document CHEMBL5725844, “Indazolyl thiadiazolamines and related compounds for inhibition of Rho-associated protein kinase and the treatment of disease” (2018).

Tests used:
[1] = target: Rho-associated protein kinase 2 (Homo sapiens, UniProt O75116); experiment: (§1) Protein constructs were purified from a baculovirus expression system. The peptide substrate was fluorescent LANCE® Ultra ULight-CREBtide: […] (PerkinElmer, # TRF0107-D). Kinase reactions were carried out in a 10 μL volume in 384-well plates: 50 nM ULight-CREBtide substrate, 2 nM constitutively active ROCK1 or ROCK2 kinase, and test compound in DMSO (or DMSO only for controls) were diluted into assay buffer containing 50 mM Tris-HCl (pH=7.5), 10 mM MgCl2, 1 mM EGTA, 0.01% Tween-20, and 2 mM DTT such that the final concentration of DMSO was 0.5%. After a 90 minute incubation at room temperature on a shaker table, the kinase reaction was stopped by addition of 10 mM EDTA, and phosphorylation of the substrate was detected by adding 1 nM LANCE® Ultra Europium-anti-phospho-CREB (ser133) antibody (PerkinElmer, # TRF0200-D) and incubating for 60 minutes on a shaker at room temperature. The flurorescence resonance energy transfer (FRET) signals were read and analyzed on an Envision¿ 2103 Multilabel Reader (Perkin Elmer).
[2] = target: Rho-associated protein kinase 1 (Homo sapiens, UniProt Q13464); experiment: as §1
Sequence of Rho-associated protein kinase 1 (Q13464 whole entry): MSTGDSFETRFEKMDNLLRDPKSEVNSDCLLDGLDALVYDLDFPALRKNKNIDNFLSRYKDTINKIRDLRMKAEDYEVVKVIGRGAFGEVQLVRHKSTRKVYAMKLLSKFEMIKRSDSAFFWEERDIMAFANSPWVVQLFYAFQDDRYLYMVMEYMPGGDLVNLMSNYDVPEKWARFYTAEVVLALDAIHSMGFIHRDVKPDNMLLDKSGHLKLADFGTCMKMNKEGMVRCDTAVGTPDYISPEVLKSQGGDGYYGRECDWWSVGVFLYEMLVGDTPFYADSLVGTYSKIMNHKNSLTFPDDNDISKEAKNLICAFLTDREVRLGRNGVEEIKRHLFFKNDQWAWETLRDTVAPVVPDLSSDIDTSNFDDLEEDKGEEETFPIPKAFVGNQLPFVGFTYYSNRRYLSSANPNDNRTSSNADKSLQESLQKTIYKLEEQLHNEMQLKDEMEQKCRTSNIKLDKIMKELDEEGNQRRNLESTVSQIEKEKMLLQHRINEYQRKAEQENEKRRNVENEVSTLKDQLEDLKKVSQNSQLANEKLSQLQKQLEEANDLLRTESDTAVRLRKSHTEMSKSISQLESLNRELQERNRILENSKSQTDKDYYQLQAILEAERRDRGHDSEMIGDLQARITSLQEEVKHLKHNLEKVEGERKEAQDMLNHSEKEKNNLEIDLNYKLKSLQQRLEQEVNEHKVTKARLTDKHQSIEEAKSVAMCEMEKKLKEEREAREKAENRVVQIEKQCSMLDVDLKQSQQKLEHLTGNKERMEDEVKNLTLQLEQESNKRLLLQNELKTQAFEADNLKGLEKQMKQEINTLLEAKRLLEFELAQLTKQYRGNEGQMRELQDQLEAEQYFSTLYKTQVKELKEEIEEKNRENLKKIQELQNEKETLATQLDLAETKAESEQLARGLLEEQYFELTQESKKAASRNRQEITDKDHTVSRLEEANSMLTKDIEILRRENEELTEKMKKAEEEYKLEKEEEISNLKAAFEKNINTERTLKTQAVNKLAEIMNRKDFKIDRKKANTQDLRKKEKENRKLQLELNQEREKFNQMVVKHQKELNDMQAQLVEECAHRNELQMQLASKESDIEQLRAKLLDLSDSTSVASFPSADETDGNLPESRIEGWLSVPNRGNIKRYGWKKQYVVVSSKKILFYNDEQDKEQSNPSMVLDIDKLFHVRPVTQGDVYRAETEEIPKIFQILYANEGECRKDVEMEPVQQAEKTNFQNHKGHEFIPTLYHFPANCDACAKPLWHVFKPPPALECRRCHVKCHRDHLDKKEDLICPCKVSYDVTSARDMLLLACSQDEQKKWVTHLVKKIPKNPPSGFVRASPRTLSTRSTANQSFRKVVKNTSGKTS

Sequence of Rho-associated protein kinase 2 (O75116 whole entry): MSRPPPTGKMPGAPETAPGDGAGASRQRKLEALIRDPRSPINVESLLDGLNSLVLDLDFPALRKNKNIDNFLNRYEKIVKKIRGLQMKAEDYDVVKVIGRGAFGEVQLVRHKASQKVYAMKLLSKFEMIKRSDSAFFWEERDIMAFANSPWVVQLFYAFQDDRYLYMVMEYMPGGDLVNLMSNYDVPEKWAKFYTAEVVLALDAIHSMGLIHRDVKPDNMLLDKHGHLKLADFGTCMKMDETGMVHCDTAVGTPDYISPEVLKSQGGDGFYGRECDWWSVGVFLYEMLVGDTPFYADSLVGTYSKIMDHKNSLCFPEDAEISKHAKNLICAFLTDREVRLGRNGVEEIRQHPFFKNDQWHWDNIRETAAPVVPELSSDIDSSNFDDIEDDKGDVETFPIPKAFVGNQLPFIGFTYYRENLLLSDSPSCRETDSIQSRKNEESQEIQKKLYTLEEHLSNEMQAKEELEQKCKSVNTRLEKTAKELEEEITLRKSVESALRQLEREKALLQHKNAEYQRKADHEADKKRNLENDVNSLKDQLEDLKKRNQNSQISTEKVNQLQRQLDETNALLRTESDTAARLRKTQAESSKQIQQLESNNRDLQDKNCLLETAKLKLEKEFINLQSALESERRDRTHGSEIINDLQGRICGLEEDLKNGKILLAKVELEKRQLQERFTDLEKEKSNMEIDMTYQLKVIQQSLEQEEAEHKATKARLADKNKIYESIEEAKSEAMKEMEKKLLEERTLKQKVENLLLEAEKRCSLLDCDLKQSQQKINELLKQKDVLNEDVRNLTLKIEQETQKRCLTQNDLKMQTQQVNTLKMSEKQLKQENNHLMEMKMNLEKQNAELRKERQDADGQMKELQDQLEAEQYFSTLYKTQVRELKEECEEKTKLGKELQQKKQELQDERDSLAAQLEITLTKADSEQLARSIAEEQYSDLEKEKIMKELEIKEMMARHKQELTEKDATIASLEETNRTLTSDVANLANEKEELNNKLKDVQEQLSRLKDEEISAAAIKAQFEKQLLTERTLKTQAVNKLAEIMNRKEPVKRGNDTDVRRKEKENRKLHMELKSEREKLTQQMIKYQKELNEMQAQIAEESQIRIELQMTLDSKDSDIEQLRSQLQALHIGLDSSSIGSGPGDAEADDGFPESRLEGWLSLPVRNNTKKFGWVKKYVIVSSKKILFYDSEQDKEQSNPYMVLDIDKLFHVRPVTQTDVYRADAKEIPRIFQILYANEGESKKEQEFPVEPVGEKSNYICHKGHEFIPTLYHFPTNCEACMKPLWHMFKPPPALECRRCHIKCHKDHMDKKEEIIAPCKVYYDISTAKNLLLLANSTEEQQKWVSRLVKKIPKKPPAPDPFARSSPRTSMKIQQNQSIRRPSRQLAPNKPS

CC1(C(=O)Nc2cccc(-c3nnc(Nc4ccc5[nH]ncc5c4Cl)s3)c2)CCCCC1
IC50 [1]: < 1000 nM

O=C(CC(F)(F)F)Nc1cccc(-c2nnc(Nc3ccc4[nH]ncc4c3Cl)s2)c1
IC50 [2]: < 1000 nM
IC50 [1]: < 1000 nM

CC(C)(O)C(=O)Nc1cccc(-c2nnc(Nc3ccc4[nH]ncc4c3Cl)s2)c1
IC50 [2]: < 1000 nM
IC50 [1]: < 1000 nM

O=C(Nc1cccc(-c2nnc(Nc3ccc4[nH]ncc4c3Cl)s2)c1)C1CCCCC1
IC50 [2]: < 1000 nM
IC50 [1]: < 1000 nM

CC(=O)Nc1cccc(-c2nnc(Nc3ccc4[nH]ncc4c3Br)s2)c1
IC50 [2]: < 1000 nM
IC50 [1]: < 1000 nM

Clc1c(Nc2nnc(-c3cccc(-c4nccn4CCN4CCCC4)c3)s2)ccc2[nH]ncc12
IC50 [2]: > 30000 nM
IC50 [1]: < 1000 nM

CN(C)CCn1cnc2c(-c3nnc(Nc4ccc5[nH]ncc5c4Cl)s3)cccc21
IC50 [2]: < 1000 nM
IC50 [1]: < 1000 nM

COCCOC(=O)Nc1cc(-c2nnc(Nc3ccc4[nH]ncc4c3Cl)s2)ccn1
IC50 [2]: > 30000 nM
IC50 [1]: < 1000 nM

CCOC(=O)N(c1nnc(-c2cccc(NC(=O)Cc3ccc(F)cc3)c2)s1)c1ccc2[nH]ncc2c1Cl
IC50 [2]: > 30000 nM

Clc1c(Nc2nnc(-c3cccc4c3ncn4CCN3CCCC3)s2)ccc2[nH]ncc12
IC50 [2]: > 30000 nM

CC(=O)Nc1cc(C(=O)N2CCNCC2)cc(-c2nnc(Nc3ccc4[nH]ncc4c3Cl)s2)c1
IC50 [2]: < 1000 nM
IC50 [1]: < 1000 nM

CC(=O)Nc1cc(C(N)=O)cc(-c2nnc(Nc3ccc4[nH]ncc4c3Cl)s2)c1
IC50 [2]: < 1000 nM
IC50 [1]: < 1000 nM

Clc1c(Nc2nnc(-c3cccc(-c4nccn4CCN4CCOCC4)c3)s2)ccc2[nH]ncc12
IC50 [2]: < 1000 nM
IC50 [1]: < 1000 nM

CC(=O)Nc1cc(C)cc(-c2nnc(Nc3ccc4[nH]ncc4c3)s2)c1
IC50 [2]: > 30000 nM
IC50 [1]: < 1000 nM

CN1CC(C(=O)Nc2cccc(-c3nnc(Nc4ccc5[nH]ncc5c4Cl)s3)c2)C1
IC50 [1]: < 1000 nM

CNC(=O)c1cc(NC(C)=O)cc(-c2nnc(Nc3ccc4[nH]ncc4c3Cl)s2)c1
IC50 [2]: < 1000 nM
IC50 [1]: < 1000 nM

CN1CCC(C(=O)Nc2cccc(-c3nnc(Nc4ccc5[nH]ncc5c4Cl)s3)c2)CC1
IC50 [2]: < 1000 nM
IC50 [1]: < 1000 nM

Cc1cn2cccc(-c3nnc(Nc4ccc5[nH]ncc5c4Cl)s3)c2n1
IC50 [2]: < 1000 nM
IC50 [1]: < 1000 nM

CC(=O)Nc1ccc(Cl)c(-c2nnc(Nc3ccc4[nH]ncc4c3Cl)s2)c1
IC50 [2]: > 30000 nM
IC50 [1]: < 1000 nM

N#Cc1ccc(-c2cn3cccc(-c4nnc(Nc5ccc6[nH]ncc6c5Cl)s4)c3n2)cc1
IC50 [2]: > 30000 nM
IC50 [1]: < 1000 nM

CC(=O)Nc1cccc(-c2nnc(Nc3ccc4[nH]ncc4c3)s2)c1
IC50 [2]: < 1000 nM
IC50 [1]: < 1000 nM

CCCCOC(=O)N(c1nnc(-c2cccc(NC(=O)Cc3ccc(F)cc3)c2)s1)c1ccc2[nH]ncc2c1Cl
IC50 [2]: > 30000 nM
IC50 [1]: < 1000 nM

CC(=O)Nc1cc(C(=O)NCCN(C)C)cc(-c2nnc(Nc3ccc4[nH]ncc4c3Cl)s2)c1
IC50 [2]: < 1000 nM
IC50 [1]: < 1000 nM

CC(=O)Nc1cc(C(=O)N2CCOCC2)cc(-c2nnc(Nc3ccc4[nH]ncc4c3Cl)s2)c1
IC50 [2]: < 1000 nM
IC50 [1]: < 1000 nM

CC(=O)Nc1cc(C(N)=O)cc(-c2nnc(Nc3ccc4[nH]ncc4c3)s2)c1
IC50 [2]: < 1000 nM
IC50 [1]: < 1000 nM

O=S(=O)(CCO)Nc1cccc(-c2nnc(Nc3ccc4[nH]ncc4c3)s2)c1
IC50 [2]: > 30000 nM
IC50 [1]: < 1000 nM

O=C(Nc1cccc(-c2nnc(Nc3ccc4[nH]ncc4c3Cl)s2)c1)C(F)(F)F
IC50 [2]: > 30000 nM
IC50 [1]: < 1000 nM

O=C(Nc1cccc(-c2nnc(Nc3ccc4[nH]ncc4c3Cl)s2)c1)C1CCNCC1
IC50 [1]: < 1000 nM

NCc1ccc(C(=O)Nc2cccc(-c3nnc(Nc4ccc5[nH]ncc5c4)s3)c2)cn1
IC50 [2]: < 1000 nM
IC50 [1]: < 1000 nM
